Ends that are not written are not given here.
How the values were obtained:
BCL6 BTB domain [1] = target: T1, BCL6 BTB domain (Homo sapiens, UniProt P41182); assay: Fluorescence polarisation (FP) competition assay with BCOR-AF633 peptide; type: biochemical; conditions: for FP pIC50 Mean / IC50: repurchased hits; for IC50: up to 2 mM, n=1-6, read-out: FP IC50 Geometric Mean
T1 construct: the tag was removed by HRV-3C protease treatment, generating a simpler BCL6 5–129 product; Thioredoxin (N, cleaved yes); 6His (N, cleaved yes); made in house; host or cells: E. coli BL21-AI
Procedure: A modified BCOR peptide containing a C-terminal cysteine, labelled with Alexa Fluor (AF)633 C5 maleimide ([…]-Cys(AF633)-amide) was obtained from Cambridge Research Biochemical. For high throughput screening, the assay was miniaturized from 10 µL in Perkin Elmer 384-well black Proxi Plus plates to 4 µL in Labcyte 1536-well black low dead volume LP-0410 plates. Each complete reaction (a modified version from[9],[17]) contained 20 mM Hepes/NaOH pH 8.0, 150 mM NaCl, 0.5 mM tris(2-carboxyethyl)phosphine (TCEP), 0.05% (v/v) Tween 20, 10 nM BCOR-AF633 peptide, 3 µM BCL6 BTB and 1–2% (v/v) DMSO. At this protein concentration, we recorded a FP signal of 80 to 90 mP, corresponding to about 55% BCOR-AF633 bound to the BCL6 BTB domain. Compounds and control BCOR peptide were dispensed using an Echo550 acoustic dispenser (Beckman Coulter). Protein and peptide reagents were added using a Multidrop combi (Thermo Scientific) or a Tempest v2 (Formulatrix). After 2 h incubation at room temperature, plates were read on an Envision plate reader (Perkin Elmer) with excitation and emission wavelengths of 620 nm and 688 nm, respectively, or Pherastar FSX (BMG Labtech) with FP filters module 590-50/675-50/675-50. […] As a low signal control, we used either the maximal inhibition by BCOR in the HTS campaign, or the signal obtained from the probe in the absence of BCL6 for IC50 determination. IC50 values were calculated using a sigmoidal dose–response (variable slope) four- parameter equation. Beside the FP measurement, the total fluorescence intensity (TFI) was recorded to allow identification of interfering compounds (TFI > 110% control)[26].

BCL6 BTB [2] = target: T2, BCL6 BTB (Homo sapiens, UniProt P41182); assay: Thermal shift assay (TSA); type: binding; conditions: measured at 200 and 400 µM compound; binder if ≥ 1 °C
T2 construct: the tag was removed by HRV-3C protease treatment, generating a simpler BCL6 5–129 product; Thioredoxin (N, cleaved yes); 6His (N, cleaved yes); made in house; host or cells: E. coli BL21-AI
Procedure: Thermal shift assays were performed in 4titude FrameStar (Part No. 4ti-0385) 384 well skirted PCR plates: each well contained 10 µL of sodium acetate pH 6 buffer, 100 mM NaCl, 0.5 mM TCEP, 10 µM BCL6 BTB and 20 × Sypro Orange dye (Life Technologies), with or without inhibitor compound (100–400 µM) at 4% (v/v) final DMSO concentration. Plates were heated on a Biorad CFX384 real time thermocycler with a temperature gradient from 10 to 95 °C with a 0.5 °C increment, 0.15 s/cycle. Data were processed using Vortex (Dotmatics): a shift of the BCL6 BTB melting temperature (ΔTm) of + 1 °C or more was classed as indicative of BCL6 compound binding.

NMR kinetic solubility = type: physicochemical; conditions: 500 µM final compound concentration, 20 mM HEPES buffer pH 8, 2% or 5% DMSO
Procedure: Solubility measurements by quantitative ^1H-NMR or HPLC method were performed as described previously.

BCL6 BTB domain [3] = target: T1, BCL6 BTB domain; assay: Surface plasmon resonance (SPR); type: binding; conditions: immobilised BCL6 BTB, pH 6.0, 1:1 equilibrium model;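 also: Fail means no measurable KD from unsaturated curves poor sensorgrams or non-1:1 stoichiometry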
Procedure: All surface plasmon resonance (SPR) experiments were carried out on a Biacore T200 (Cytiva) and amine coupling chemistry was used to immobilise the protein on a research grade CM5 sensor chip. The running buffer consisted of 100 mM sodium acetate, 100 mM sodium chloride, and 1 mM TCEP at pH 6.0. The chip’s surface was activated for 10 min using a 1:1 mixture of 100 mM N-hydroxysuccinimide and 400 mM 1-ethyl-3-(3-dimethylaminopropyl)-carbodiimide. BCL6 BTB protein was injected for 20 min at a concentration of 100 µg/mL in a 10 mM sodium acetate buffer (pH 5.5). Finally, the surface was blocked via an injection of 1 M ethanolamine pH 8.5 for 7 min. The flow rate was maintained at 10 µL/min for all the above procedures and ~ 10,000 response units (RU) of BCL6 was immobilised on the chip. Flow cell one was left unmodified as the reference surface.
Following protein immobilisation, the running buffer was changed to 100 mM sodium acetate, 100 mM sodium chloride, 1 mM TCEP, 0.05% Tween20 (v/v), 5% DMSO at pH 6.0.
All compound handling was performed on an ECHO 550 acoustic liquid dispenser and compounds were added to 384-well polypropylene V-bottomed plates (Greiner), which became the sample plates for the SPR. […] The flow rate was 30 µL/min, the injection time for the samples was 60 s, and the dissociation time was 60 s. The surface was not regenerated between sample injections. KD values were calculated from the Langmuir plot under equilibrium conditions using the 1:1 binding model in the Biacore software version 2 (Cytiva).

BCL6 BTB [4] = target: T2, BCL6 BTB; assay: 19F ligand-observed NMR TFA-WVIP-NH2 peptide displacement assay; type: binding; conditions: for 19F LO-NMR, % peptide displaced: 200 µM compound, 200 µM TFA-WVIP-NH2, 6 µM BCL6 BTB, mean ± SD, n=2, hit if ≥ 30%; for Displacement of BCL6-bound TFA-WVIP-NH2 peptide (recovery of fluorine signal): Figure 3A, qualitative
Procedure: Each 180 µL ^19F-NMR peptide displacement assay contained 20 mM HEPES buffer pH 8, 100 mM NaCl, 0.5 mM TCEP, 10% D2O, 200 µM reporter TFA-WVIP-NH2, with or without 200 µM compound (4% D6-DMSO final) and 6 µM BCL6 BTB. Each 180 µL sample reaction was prepared in a 96-well plate and 170 µL transferred to a 3 mm NMR tube (Bruker, Part No. Z112272) using a Gilson liquid handler GX-281. NMR data were collected on a Bruker […] 500 MHz spectrometer equipped with a 5 mm BBFO probe. Data were acquired and processed using Bruker Topsin 2.1. The recovery of the reporter NMR signal upon addition of compound indicates competitive binding at the same site as the TFA-WVIP-NH2 tetrapeptide on the protein. We quantified the extent of recovery of NMR signal in % of reporter displacement[42]: \% displacement=Ireporter(+protein+compound)-Ireporter(+protein)/Ireporter(-protein)-Ireporter(+protein)X100\%

Trx-6His-BCL6 BTB = target: T3, Trx-6His-BCL6 BTB (Homo sapiens, UniProt P41182); assay: TR-FRET assay, Trx-6His-BCL6 BTB / BCOR-A633 peptide; type: biochemical; conditions: 1 or 10 nM Trx-6His-BCL6 BTB; read-out: TR-FRET IC50
T3 construct: made in house; host or cells: E. coli BL21-AI
Procedure: Each 15 µL TR-FRET reaction in 384-well black Proxiplate (Perkin Elmer) contained 1 or 10 nM Trx-6His-BCL6 BTB, 300 nM BCOR-A633 and 0.5 or 1 nM anti-6His-Terbium cryptate (Perkin Elmer), in the FP assay buffer (25 mM Hepes pH 8, 100 mM NaCl, 0.05% (v/v) Tween20, 0.5 mM TCEP), supplemented with 0.05% (w/v) bovine serum albumin. Test compounds in DMSO or DMSO alone were added to the wells using and Echo 550 acoustic dispenser to give the appropriate test concentration in 0.7% v/v DMSO final. After a 2 h incubation at room temperature, the plates were read on an Envision plate reader or a Pherastar FSX plate reader with 337 nm laser excitation, a first emission filter at 665 nm and a second emission filter at 615 or 620 nm. Data were normalised and IC50 determined as described above for the FP assay.

Compound	FP pIC50 Mean (BCL6 BTB domain [1])	IC50 (BCL6 BTB domain [1])	TSA Tm (thermal shift) (BCL6 BTB [2])	Sol. (NMR kinetic solubility) (NMR kinetic solubility)	SPR KD (BCL6 BTB domain [3])	19F LO-NMR, % peptide displaced (BCL6 BTB [4])	Kd (BCL6 BTB domain [3])	Displacement of BCL6-bound TFA-WVIP-NH2 peptide (recovery of fluorine signal) (BCL6 BTB [4])	FP % inhibition at top concentration (BCL6 BTB domain [1]; printed beside IC50 >980 µM, 34% inhibition at 1 mM in text)	IC50 (Trx-6His-BCL6 BTB)	FP % inhibition (BCL6 BTB domain [1]; at 980 µM, n=4)
CCC1=C(C(=O)OC)C(c2ccccc2F)n2ncnc2N1 (stereo not shown) [Compound 8]	3.66	219 µM	0.5-2 ºC	70 µM	Fail	–	–	–	–	–	–
Cc1cc(NCc2ccc3c(c2)OCO3)n2ncnc2n1 [Compound 9]	3.32	477 µM	–	96 µM	Fail	49.5 ± 9%	–	–	–	–	–
N#Cc1c(C(F)(F)F)cc(-c2cccs2)nc1SC(C(=O)O)c1ccccc1 (stereo not shown) [Compound 13]	3.64	230 µM	0-2.5 ºC	313 µM	–	102 ± 1%	672 µM	–	–	–	–
EGLVATVKEAGRSIHEIPR [SMRT, reference compound]	–	–	–	–	–	–	–	able to displace	–	–	–
Cc1ccccc1C1CC(c2ccccc2)Nc2ncnn21 (stereo not shown) [Compound 1]	3.70	197 µM	0-1 ºC	71 µM	Fail	61 ± 4%	–	–	–	–	–
Fc1ccc(C2CC(c3cccc4ccccc34)n3ncnc3N2)cc1 (stereo not shown) [Compound 3]	3.99	102 µM	0.5-2 ºC	64 µM	Fail	54 ± 1%	–	–	–	–	–
Cn1c(=O)n(C)c2cc(Nc3cc(N4CCOCC4)ncn3)ccc21 [Compound 18]	–	> 980 µM	0-0.5 ºC	55 µM	–	–	–	–	34%	–	–
COc1cccc(CN(C)c2nc3c(cnn3C(C)(C)C)c(=O)[nH]2)c1 [Compound 20]	3.18	666 µM	0 ºC	< 30 µM	–	–	–	–	–	–	–
COC(=O)C1=C(C)Nc2ncnn2C1c1ccc(C(=O)O)cc1 (stereo not shown) [Compound 6]	3.15	703 µM	0.5-1 ºC	538 µM	–	33.5 ± 1%	659 µM	–	–	–	–
O=C(NCc1ccccn1)c1csc(Nc2ccccc2Cl)n1 [Compound 14]	3.74	183 µM	1-2.5 ºC	188 µM	–	78 ± 23%	302 µM	–	–	–	–
N#Cc1c(NCc2ccccc2)ccnc1Cl [Compound 21]	3.92	120 µM	1-2 ºC	72 µM	–	63 ± 7%	81 µM	able to displace	–	70 µM	–
Fc1ccc(C2CC(c3ccccc3Cl)Nc3ncnn32)cc1 (stereo not shown) [Compound 5]	3.71	194 µM	0 ºC	< 30 µM	–	–	–	–	–	–	–
CC(C)CCn1c(SCC(=O)Nc2ccccc2F)nc2nccnc2c1=O [Compound 22]	3.45	353 µM	0.5-1 ºC	163 µM	–	23 ± 11%	1190 µM	–	–	–	–
Cn1c(=O)n(C)c2cc(Nc3cc(SCc4ccccc4)ncn3)ccc21 [Compound 17]	4.15	70.2 µM	–	39 µM	–	100 ± 1%	49 µM	–	–	54 µM	–
O=C(NCCCN1CCOCC1)c1csc(Nc2cccc3ccccc23)n1 [Compound 15]	3.83	150 µM	–	83 µM	–	70 ± 1%	553 µM	–	–	–	–
CCCC1=C(C(=O)OCC)C(c2cccnc2)n2ncnc2N1 (stereo not shown) [Compound 7]	4.02	95.5 µM	0.5-3 ºC	476 µM	–	82.5 ± 5%	168 µM	–	–	–	–
WVIP peptide: hybrid BCOR/SMRT tetrapeptide with an Ac-WVIP-NH2 sequence [reference compound]	–	–	–	–	–	–	–	–	–	–	16%
